The values that follow come from ChEMBL document CHEMBL1123339, “Ligand-receptor interactions via hydrogen-bond formation. Synthesis and pharmacological evaluation of pyrrolo and pyrido analogues of the cardiotonic agent 7-hydroxycyclindole” (1986).

This experiment is filed under the species Felis catus. In words: Compound was evaluated for positive inotropic activity in vitro on cat papillary muscle, expressed as the percent increase over base-line contractility at 1 x 10 e-4 M. It counts as functional.
Consider `Nc1cc(-c2ccncc2)c[nH]c1=O` [INAMRINONE], for which the Increase came to 50%.
As for `CN(C)C1CCc2[nH]c3c(ccc4ncccc43)c2C1` (stereo not given), the figure is 80%; as for `CN(C)C1CCc2c(c3ccc4ncccc4c3n2C)C1` (stereo not given), 69%; as for `CN(C)C1CCc2[nH]c3c(ccc4[nH]ccc43)c2C1` (stereo not given), 15%.
As for `CN(C)C1CCc2[nH]c3cc(O)ccc3c2C1` (stereo not given), the figure is 50%.
